Laboratory results reported in ChEMBL document CHEMBL1145267, “Antioxidant and antiproliferative activity of curcumin semicarbazone” (2005).

What was measured:
Format in all cases: functional
MCF7 = assay: Compound tested for percent viability of human MCF-7 cell line at 1 mg/mL concentration after 24 hrs by MTT method
Rattus norvegicus [1] = species on record: Rattus norvegicus; assay: Compound (10 uM) tested for percent inhibition of […] induced lipid peroxidation in rat liver microsomes; Range 85-54%
Rattus norvegicus [2] = species on record: Rattus norvegicus; assay: Compound (10 uM) tested for percent inhibition of […] induced lipid peroxidation in rat liver microsomes; Range 80-60%

Compound	Viability (MCF7) [%]	inhibition (Rattus norvegicus [1]) [%]	inhibition (Rattus norvegicus [2]) [%]
COc1cc(/C=C/C(=O)CC(/C=C/c2ccc(O)c(OC)c2)=N/NC(N)=O)ccc1O	26	85	–
COc1cc(/C=C/C(=O)CC(=O)/C=C/c2ccc(O)c(OC)c2)ccc1O [CURCUMIN]	64	–	80
